# Data reported in the supplement of paper PMC10307832.
# Assays:
# Experiment in all cases: relative viability (nuclei count vs DMSO), 5 days (fraction); higher = more cells survive
# Halofuginone + Olaparib = compound: O=C(C[C@H]1NCCC[C@@H]1O)Cn1cnc2cc(Br)c(Cl)cc2c1=O (racemic) [Halofuginone] + O=C(c1cc(Cc2n[nH]c(=O)c3ccccc23)ccc1F)N1CCN(C(=O)C2CC2)CC1 [Olaparib] (partner 8 µM)
# Procedure, shortened: (§1)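 Medians of duplicate plates are given as relative viability. That measure is the nuclei count in treated wells divided by the count in vehicle wells. Counts were taken on 4× images of lung cancer cell lines in 1536-well plates, 5 days after pin-tool dosing the day after seeding with one drug alone or a fixed anchor-drug dose plus five library-drug doses (not always all listed) in √10 steps.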
# [1] = compound: O=C(C[C@H]1NCCC[C@@H]1O)Cn1cnc2cc(Br)c(Cl)cc2c1=O (racemic) [Halofuginone] + CC1(C)CCC(c2ccc(Cl)cc2)=C(CN2CCN(c3ccc(C(=O)NS(=O)(=O)c4ccc(N[C@H](CCN5CCOCC5)CSc5ccccc5)c(S(=O)(=O)C(F)(F)F)c4)cc3)CC2)C1 [Navitoclax] (partner 0.5 µM)
# Procedure, shortened: as §1
# [2] = compound: O=C(C[C@H]1NCCC[C@@H]1O)Cn1cnc2cc(Br)c(Cl)cc2c1=O (racemic) [Halofuginone] + N=C(N)NC(=N)NCCc1ccccc1 [Phenformin] (partner 250 µM)
# Procedure, shortened: as §1
# Decitabine + Alpelisib = compound: Nc1ncn([C@H]2C[C@H](O)[C@@H](CO)O2)c(=O)n1 [Decitabine] + Cc1nc(NC(=O)N2CCC[C@H]2C(N)=O)sc1-c1ccnc(C(C)(C)C(F)(F)F)c1 [Alpelisib] (partner 2 µM)
# Procedure, shortened: as §1
Cell Line,relative viability (Halofuginone + Olaparib; first compound 0.001 µM),relative viability (Halofuginone + Olaparib; first compound 0.003162 µM),relative viability (Halofuginone + Olaparib; first compound 0.01 µM),relative viability (Halofuginone + Olaparib; first compound 0.03162 µM),relative viability (Halofuginone + Olaparib; first compound 0.1 µM),relative viability ([1]; first compound 0.001 µM),relative viability ([1]; first compound 0.003162 µM),relative viability ([1]; first compound 0.01 µM),relative viability ([1]; first compound 0.03162 µM),relative viability ([1]; first compound 0.1 µM),relative viability ([2]; first compound 0.001 µM),relative viability ([2]; first compound 0.003162 µM),relative viability ([2]; first compound 0.01 µM),relative viability ([2]; first compound 0.03162 µM),relative viability ([2]; first compound 0.1 µM),relative viability (Decitabine + Alpelisib; first compound 0.1265 µM),relative viability (Decitabine + Alpelisib; first compound 0.4 µM),relative viability (Decitabine + Alpelisib; first compound 1.265 µM),relative viability (Decitabine + Alpelisib; first compound 4 µM),relative viability (Decitabine + Alpelisib; first compound 0.04 µM)
LK-2,0.806,0.623,0.673,0.833,0.607,0.78,0.979,0.81,0.931,0.603,0.627,0.598,0.404,0.372,0.221,0.986,0.73,0.553,0.504,
LOU-NH91,0.958,0.93,0.853,0.925,0.81,0.746,0.705,0.719,0.719,0.536,0.75,0.686,0.65,0.786,0.628,0.673,0.688,0.592,0.61,0.484
LU99A,0.268,0.257,0.25,0.248,0.286,0.794,0.73,0.763,0.706,0.665,0.945,1.08,0.841,0.764,0.735,0.7,0.625,0.504,0.389,0.466
LXF-289,1.02,1.03,1.06,1.07,0.815,0.94,0.965,0.859,0.973,0.865,0.533,0.519,0.498,0.508,0.507,0.606,0.478,0.352,0.315,0.716
NCI-H23,0.409,0.291,0.326,0.271,0.223,0.893,0.966,0.795,0.798,0.377,0.774,0.762,0.757,0.806,0.669,0.391,0.275,0.218,0.238,0.604
NCI-H322M,0.821,0.535,0.781,0.624,0.5,1.2,1.26,1.26,1.24,1.19,0.783,0.728,0.721,0.566,0.478,0.613,0.71,0.498,0.403,0.659
NCI-H441,0.591,0.537,0.56,0.455,0.238,0.607,0.674,0.562,0.586,0.34,0.976,1.05,0.87,0.839,0.564,0.334,0.276,0.214,0.259,0.412
NCI-H460,0.417,0.416,0.466,0.415,0.083,1.2,1.3,1.12,0.232,0.0111,0.512,0.549,0.543,0.493,0.126,0.575,0.348,0.268,0.191,0.425
